Data reported in patent publication US12414979B2, “Compositions and methods for treating Sjogren's syndrome” (Interlude Biopharma Co., priority 2019, dated 2025).
No end group written: not given here.

System: PAR-C10 cells
Assay: Trans-epithelial electrical resistance (TEER) assay of tight junction integrity in PAR-C10 monolayers treated with IFNγ and TNFα
Format: cell-based, rat
Settings: for prevention of cytokine-induced drop in TEER: co-incubation with IFNγ and TNFα, larazotide acetate 1 mM and 5 mM, other compounds 5 mM and 10 mM, FIG. 1-3
Excerpt: Specifically, an in vitro assay system to measure tight junction integrity was established using PAR-C10 cells, an immortalized rat acinar epithelial cell line, which mimic the biochemical and functional characteristics of primary salivary gland acinar cells. PAR-C10 cells form a monolayer of cuboidal cells, and are attached to each other with well-formed junctional complexes. PAR-C10 cells have been used to model the effect of inflammatory cytokines on tight junctions in vitro. Quissell et al., (1998) In Vitro Cell. Dev. Biol. Anim. 34: 58-67; Baker et al., Am. J. Cell Physiol. 295:C1191-1201. The cells were seeded on permeable supports in 12 well plates and cultured to form monolayers. The trans-epithelial electrical resistance (TEER) across the epithelial monolayer was measured to evaluate formation of tight junction between the cells. Three ng/ml of each pro-inflammatory cytokines, interferon gamma (IFNγ) and tumor necrosis factor alpha (TNFα) were added to the monolayers and incubated for 24 hours in order to cause tight junction disruption. Larazotide acetate (1 mM and 5 mM) or any one of 4-Aminosalicylic acid (4-ASA), 4-Amino-phenyl-acetic acid (4-APAA), and 4-Acetyl amino-phenyl-acetic acid (4-Ac APAA) (5 or 10 mM) of was added to the apical surface and the cells allowed to grow for an additional 24 hours. The compounds were dissolved in dimethyl sulfoxide and added to the culture media to obtain a final concentration of 5 mM and 10 mM each.
TEER measurements were used to determine the effect of larazotide acetate (1 or 5 mM) and other anti-inflammatory compounds (4-Aminosalicylic acid (4-ASA), 4-Amino-phenyl-acetic acid (4-APAA), and 4-Acetyl amino-phenyl-acetic acid (4-Ac APAA)) (5 or 10 mM) on tight junctions, in the presence of cytokines. To determine a therapeutic effect, the cells were pre-treated with cytokines, and the ability of larazotide acetate (1 or 5 mM) or 4-ASA, 4-APAA, and 4-Ac APAA (each at 5 or 10 mM) to reverse junctional disruption was evaluated. Wells not treated with cytokines were used as controls. p values were determined by Kruskal Wallis tests, and adjusted p values were determined by Dunns post test.

Compound	prevention of cytokine induced disruption of tight junctions (TEER) (5 mM concentration, 2 independent experiments, FIG. 2)	prevention of cytokine-induced drop in TEER	reversal of cytokine-mediated drop in TEER (monolayers incubated with IFNγ and TNFα for 24 hours, then larazotide acetate (1 mM and 5 mM) on apical surface for additional 24 hours, FIG. 4)
GGVLVQPG [larazotide acetate]	can reproducibly prevent cytokine induced disruption of tight junctions	significantly prevent a drop in TEER	able to reverse the cytokine-mediated drop in TEER
Nc1ccc(CC(=O)O)cc1 [4-Amino-phenyl-acetic acid, 4-aminophenylacetic acid]	–	significantly prevent a drop in TEER	–
CC(=O)Nc1ccc(CC(=O)O)cc1 [4-Acetyl amino-phenyl-acetic acid, (4-acetylaminophenyl)-acetic acid, reference compound]	–	significantly prevent a drop in TEER	–
Nc1ccc(C(=O)O)c(O)c1 [4-Aminosalicylic acid, reference compound]	–	significantly prevent a drop in TEER	–
